As a reminder, the IC50 is the concentration at which inhibition is half-maximal. A higher IC50 goes with weaker potency.

Assay type in all cases: functional, cell-based
In one assay the test system is MCF7. The assay can be described thus: Antiproliferative activity against human MCF7 cells after 48 hrs by MTT/quantitative colorimetric method. The following applies: MCF7, 48 h.
A further assay concerns DU-145. The assay can be described thus: Antiproliferative activity against human DU145 cells after 48 hrs by MTT/quantitative colorimetric method. The following applies: DU-145, 48 h.
Another assay has as its system A549. Description: Antiproliferative activity against human A549 cells after 48 hrs by MTT/quantitative colorimetric method. The following applies: A549, 48 h.
In a further assay the test system is HeLa. Description: Antiproliferative activity against human HeLa cells after 48 hrs by MTT/quantitative colorimetric method.

With `Cn1c2c(c3ccccc31)CC(=O)N(c1ccc(F)cc1)C2C(=O)NC1CCCCC1` (configuration not stated), the IC50 with MCF7 is 50 µM; in the assay with DU-145 it was 47 µM; in the assay with A549, 62 µM; in the assay on HeLa, 11 µM.

Regarding `Cn1c2c(c3ccccc31)CC(=O)N(c1ccc(Br)cc1)C2C(=O)NC1CCCCC1` (configuration not stated), the IC50 with MCF7 was 52 µM; in the assay with DU-145 it was 45 µM; in the assay with A549, > 100 µM; with HeLa it was 49 µM.

As for `Cn1c2c(c3ccccc31)CC(=O)N(c1ccc(Cl)cc1)C2C(=O)NC1CCCCC1` (configuration not stated), the IC50 in the assay on MCF7 is > 100 µM; in the assay with DU-145 it was 42 µM; in the assay with A549, 59 µM; in the assay with HeLa, 55 µM.

For the molecule `Cn1c2c(c3ccccc31)CC(=O)N(c1cccc(F)c1)C2C(=O)NC1CCCCC1` (configuration not stated), the IC50 is 95 µM in the assay with MCF7, > 100 µM with DU-145, 85 µM in the assay on A549 and 25 µM in the assay with HeLa.

Regarding `Cc1ccc(C)c(N2C(=O)Cc3c(n(C)c4ccccc34)C2C(=O)NC2CCCCC2)c1` (configuration not stated), the IC50 was 95 µM with MCF7, > 100 µM with DU-145, > 100 µM with A549 and > 100 µM in the assay with HeLa.

Turning to `Cn1c2c(c3ccccc31)CC(=O)N(c1ccc(F)cc1)C2C(=O)NC(C)(C)C` (configuration not stated), the IC50 in the assay on MCF7 is 61 µM; with DU-145, 78 µM; in the assay on A549, > 100 µM; with HeLa it was 26 µM.

For `Cn1c2c(c3ccccc31)CC(=O)N(c1ccc(Cl)cc1)C2C(=O)NC(C)(C)C` (configuration not stated), the IC50 was 96 µM in the assay with MCF7, > 100 µM in the assay with DU-145, 63 µM in the assay with A549 and 83 µM in the assay on HeLa.

Consider `Cn1c2c(c3ccccc31)CC(=O)N(c1ccc(F)c(Cl)c1)C2C(=O)NC(C)(C)C` (configuration not stated), for which the IC50 is > 100 µM in the assay on MCF7, 95 µM with DU-145, 80 µM in the assay with A549 and > 100 µM in the assay on HeLa.

In the case of `Cc1ccc(C)c(N2C(=O)Cc3c(n(C)c4ccccc34)C2C(=O)NC(C)(C)C)c1` (configuration not stated), the IC50 was determined as 87 µM in the assay on MCF7, 63 µM in the assay with DU-145, 49 µM in the assay with A549 and 95 µM in the assay with HeLa.

In the case of `Cn1c2c(c3ccccc31)CCC(=O)N(c1ccc(F)cc1)C2C(=O)NC1CCCCC1` (configuration not stated), the IC50 in the assay with MCF7 amounted to 50 µM; in the assay with DU-145, 90 µM; in the assay with A549, 59 µM; in the assay with HeLa, 48 µM.

For the molecule `Cn1c2c(c3ccccc31)CCC(=O)N(c1ccc(Br)cc1)C2C(=O)NC1CCCCC1` (configuration not stated), the IC50 with MCF7 was 78 µM; in the assay on DU-145 it was 55 µM; in the assay with A549, > 100 µM; with HeLa, 63 µM.

As for `Cn1c2c(c3ccccc31)CCC(=O)N(c1ccc(Cl)cc1)C2C(=O)NC1CCCCC1` (configuration not stated), the IC50 with MCF7 came to 29 µM; with DU-145 it was 13 µM; in the assay with A549, 27 µM; with HeLa it was 12 µM.

Consider `Cn1c2c(c3ccccc31)CCC(=O)N(c1ccc(F)c(Cl)c1)C2C(=O)NC1CCCCC1` (configuration not stated), for which the IC50 in the assay on MCF7 is 54 µM; in the assay on DU-145, 82 µM; in the assay on A549, > 100 µM; with HeLa it was > 100 µM.

For `Cn1c2c(c3ccccc31)CCC(=O)N(c1cccc(F)c1)C2C(=O)NC1CCCCC1` (configuration not stated), the IC50 is 94 µM in the assay on MCF7, 52 µM in the assay on DU-145, > 100 µM with A549 and 44 µM with HeLa.

As for `Cc1ccc(C)c(N2C(=O)CCc3c(n(C)c4ccccc34)C2C(=O)NC2CCCCC2)c1` (configuration not stated), the IC50 in the assay with MCF7, in the assay on DU-145, in the assay with A549 and with HeLa was > 100 µM throughout.

With `Cn1c2c(c3ccccc31)CCC(=O)N(c1ccc(F)cc1)C2C(=O)NC(C)(C)C` (configuration not stated), the IC50 with MCF7 was 50 µM; in the assay with DU-145, 70 µM; in the assay with A549, > 100 µM; in the assay with HeLa, 46 µM.

For `Cn1c2c(c3ccccc31)CCC(=O)N(c1ccc(Cl)cc1)C2C(=O)NC(C)(C)C` (configuration not stated), the IC50 was 18 µM in the assay on MCF7, 21 µM in the assay with DU-145, 18 µM in the assay with A549 and 13 µM in the assay on HeLa.

Take `Cn1c2c(c3ccccc31)CCC(=O)N(c1ccc(F)c(Cl)c1)C2C(=O)NC(C)(C)C` (configuration not stated): the IC50 is > 100 µM with MCF7, 56 µM in the assay on DU-145, 35 µM with A549 and 67 µM in the assay with HeLa.

The values are drawn from ChEMBL document CHEMBL3351556, “Thee-component, one-pot synthesis of hexahydroazepino[3,4-b]indole and tetrahydro-1H-pyrido[3,4-b]indole derivatives and evaluation of their cytotoxicity” (Bioorg Med Chem Lett, 2014).
